The results in this text go back to patent publication US11987835B2, “Amino acid-sensing diguanylate cyclase and methods of use” (priority 2019, dated 2024).

Where a chain is given by its changes, count along the chain named. Some results are limits rather than exact numbers.

Test [1] concerns Aer01 SpdE tandem PAS/dCache region (residues 37-287). Kind of test: Thermofluor (thermal shift) assay, Aer01 SpdE. It counts as binding, Aeromonas veronii. To be noted: 10 mM pure amino acid; for thermal shift (ΔTm) in words: replicate ΔTm data. Here is the method: (§1) Thermofluor Assay. The periplasmic portion of SpdE was cloned, expressed and purified in E. coli. Thermofluor assays were performed using a Thermo Fisher Scientific StepOnePlus Real-time PCR instrument. Each 20 μL sample contained 0.1 mg/mL SpdE protein, 4× SYPRO Orange dye, 165 mM NaCl, 80 mM Tris pH 7.5 and 10 mM ligand (free amino acid dissolved in water). All samples were done in triplicate and repeated 2-3 times on different days. All reagents and steps were performed at 4° C. and placed in 96 well PCR plates. The PCR plate was slowly heated (˜0.03° C./sec) from 4° C. to 80° C. in the StepOnePlus instrument and fluorescent measurements were taken every 8.5 sec. The resultant thermal shift curves were analyzed to find the inflexion points, which correspond to the melting temperature (Tm) of the protein (with or without ligand). Inflexion points were determined in Microsoft Excel by calculating the half way point between the minimum fluorescence value prior to fluorescence increase and the maximum fluorescence value. The Tm difference between protein with and without ligand was calculated and plotted to determine the thermal stability shift as a proxy for ligand binding.
In order to identify SpdE ligands, a thermal shift assay was conducted using 96-well Biolog Phenotype MicroArray plates as a high-throughput approach to screen compounds for ligand candidates. Using heterologously expressed and purified tandem PAS/dCache region of the protein (residues 37-287), ˜200 compounds were screened for ones that conferred a significant shift in protein thermal stability (see Table 4). […] For each curve, the melting temperature (Tm) was determined (brown circles), which corresponds to the midpoint of protein unfolding. The ΔTm (difference between test Tm and water control Tm) was calculated for each amino acid condition.
(In general: Differential scanning fluorimetry follows unfolding on heating by fluorescence.)

Test [2] deals with SpdE diguanylate cyclase activity in Aer01. Nature of the test: Intracellular cyclic di-GMP quantification. The test is classed as cell-based, Aeromonas veronii. The conditions noted are these: WT Aer01, 1 mM amino acid, ~4 hrs, versus no ligand.
Procedure: Intracellular cyclic di-GMP quantification. […] Cultures were incubated, shaking, at 30° C. for 4 hours. Sample OD600 was measured and the entire volume pelleted. Sample pellets were resuspended in 300 μL ice cold extraction buffer (40/40/20 acetonitrile/methanol/water+0.1 N formic acid), iced for 30 min, then pelleted at maximum speed in tabletop microcentrifuge for 10 min. The supernatant was transferred to a new tube and stored at −80° until being vacuum concentrated until completely evaporated.
Dried samples were resuspended in 100 μL Ultra Performance liquid chromatography-grade water and centrifuged for two minutes at 18,000×g (Eppendorf® Centrifuge 5242R). The debris-free supernatants were moved to LCMS Certified Clear Glass 12×32 mm screw neck max recovery vials (Waters®). Ten microliters of each sample were analyzed using LC-MS/MS on a Quattro Premier XE mass spectrometer coupled with an Acquity Ultra Performance LC system (Waters®). Cyclic di-GMP was detected with electrospray ionization using multiple reaction monitoring in negative-ion mode at m/z 689.16→344.31. […]
In the case of SpdE, ligand binding to the PAS/Cache was hypothesized to regulate SpdE diguanylate cyclase activity, thereby altering intracellular levels of c-di-GMP. To test this, WT and ΔspdE Aer01 were incubated in the presence or absence of amino acid ligands for ˜4 hrs, then pelleted and lysed the cells to extract and quantify intracellular c-di-GMP.
The test system of test [3] is Aer01. It counts as cell-based, Aeromonas veronii.
Procedure: Exploration Assay. Overnight cultures (TSB) of Aer01 Strains were pelleted (1 mL), and resuspended in 1 ml sterile EM. […] The cultures were incubated, shaking, at 30° C. for 3 hours. An aliquot of each culture was passed through a 0.2 μM filter (Corning® Costar® Spin-X® centrifuge tube filters) to generate cell-free supernatant. To a sterile 96-well plate round-bottom plate, 80 μL of unfiltered culture was added to each well to include five replicates for each condition. To another sterile 96-well plate round-bottom plate, 80 μL of the cell-free supernatant was added to each well to replicate the layout of the culture plate. Using a Rainin Liquidator™ 96-channel benchtop pipettor, 5 μL of the cell-free supernatant was pulled up into 20 μL Rainin pipette tips. These tips then were lowered down into the wells of the culture plate so the tips were submerged to half the depth of the culture volume in the wells. This set-up was incubated at room temperature for 30 min, during which time the cells in the culture can swim up into the supernatant in the pipette tips. After incubation, the contents of the tips were ejected into the wells of a sterile 96-well plate (Corning, flat-bottom, #3595) to which 195 μL of sterile TSB medium was added to each well. This plate was immediately placed in a FLUOstar Omega microplate reader (BMG Labtech, Offenburg, Germany) and growth curves monitored by measuring absorbance (600 nm) every 10 min for 12-16 hrs, with 30° C. incubation and constant shaking. The growth curves were plotted and the times at which the absorbance passed 0.5 was determined for each plot. The time difference between a particular condition and a reference condition (as indicated in FIG. 5C) represents the “exploration response” of Aer01 in that condition.
An “exploration assay” was used to measure population-level motility. For this assay Aer01 was incubated in the presence/absence of amino acid ligand (1 mM) for˜4 hrs, then the culture was added to the wells of a 96-well plate and pipette tips filled with the cell-free supernatant of the same cultures was lowered into the wells (FIG. 13). During a 30 min incubation period the Aer01 cells in the wells swam up into the pipette tips. […] To quantify the number of cells in the pipette tips after the 30 min exploration time, the contents of the pipette tips were ejected into the wells of a 96-well plate containing rich media and growth curves were monitored. […] This time difference between conditions, “exploration response,” was calculated to compare across many strains and conditions (FIG. 12C).
The subject of test [4] is Aer01. It counts as cell-based, Aeromonas veronii. Here is the method:
Live imaging and quantification of Aer01 motility. […] EM containing proline or valine (pH adjusted to 7.8 with HCl/NaOH) was added to the wells to generate the desired final concentrations of amino acid (0, 1 nM, 10 nM, 100 nM, 1 μM, or 1 mM) and cell densities of OD 0.1, each performed in triplicate. The tray was covered by parafilm and incubated at 30° C. for 5 hours. Cells were imaged between hour 5-6. Prior to imaging, bacterial samples were moved to a temperature-controlled box housing the microscope, heated to 30° C. 2 ul of bacteria from treatments were applied to a well slide (MP Biomedicals 10-well multitest slides #096041805), covered with a coverslip, and imaged immediately. Videos of bacteria were captured using a Nikon Eclipse Ti inverted microscope on the GFP channel using 20× magnification at 39 frames per second. Videos of treated bacteria were analyzed with particle tracking software (Parthasarathy, Nature Methods 9:724-236, 2012) using these settings: “objects” were identified using bpfilter 3, nsize 7, and gradobjsize 0. A standard threshold of 3.99-6 was applied, depending on the degree of background. Motile bacteria were defined as objects tracked over at least 1 s (39 frames) with a standard deviation in position of pixels/frame of at least 1.
To do this, Aer01 was incubated in medium+/−ligand (ranging between 0 and 1 mM) then wet-mounted and imaged on an inverted microscope.
The source holds these as a separate data set.

Test [5] relates to Aer01. Kind of test: Biofilm assay (crystal violet). It counts as cell-based, Aeromonas veronii. The conditions noted are these: WT Aer01, 1 mM ligand, 48 hrs.
Procedure: Biofilm Assay. […] To the wells of a sterile 96-well plate (Corning, flat-bottom, #3595), 150 μL of each resuspended culture was added, in triplicate. A blank control well was added for each condition using the appropriate uninoculated media. This plate was incubated at 30° C., stationary, for 48 hours. After incubation, the biofilms were quantified using a standard crystal violet biofilm staining procedure. […] Briefly, the supernatant was removed from each well, then the wells gently rinsed three times with 150 μL sterile EM. Then, 150 μL 0.1% crystal violet was added to each well and the plate was incubated at room temperature for 10 minutes, followed by five rinses with 150 μL sterile EM. To destain, 150 μL 95% ethanol was added to each well and the plate was incubated at room temperature for 10 minutes. Each well was mixed well and the contents transferred to a clean 96-well plate and the absorbance (570 nm) was read on a FLUOstar Omega microplate reader (BMG Labtech, Offenburg, Germany).
For test [6], the system named is Aer01 colonization of larval zebrafish gut. Kind of test: Bacterial competitions in vivo (competitive index). The conditions noted are these: GF zebrafish.
Procedure: Bacterial competitions in vivo. For in vivo bacterial competitions, strains (purified evolved isolates, or Aer01 genetic variants) were grown overnight in TSB from freezer stocks. 1 ml of the overnight cultures were pelleted (8,700 rcf, 2 min), then resuspended in 1 ml sterile EM. Competing strains were mixed, then added to flasks of 4 dpf GF (or CV fish) WT fish at ˜10^6 CFU/ml. For all competitions, sfGFP-tagged Aer01 was used as the “reference” strain. […] At 7 dpf, fish intestines were dissected as described above, and each intestine transferred into a 1.6 ml tube containing 500 μl sterile EM and ˜100 μl bullet beads, then bullet blended as described above. Homogenized samples were diluted appropriately in sterile EM, spread plated on TSA plates, incubated at 30° C. for 1-2 days, and the colonies counted. Strains were differentiated by fluorescence microscopy. Competitive index (CI) was calculated by dividing the strain ratio (test strain divided by reference strain) in the gut at the end of the competition by the strain ratio in the inoculum ((test/reference)gut/(test/reference)inoculum) (FIG. 1). The limit of detection is 5 CFU/gut; for samples were one strain was below the limit of detection, the abundance was set to 5 CFU in order to calculate a CI; this was the case for few of the samples.
To test whether WT motility, and therefore immigration into the host, could be increased with addition of ligands, competitions were performed as previously described, this time supplementing the inoculum and flask medium with SpdE ligand.
Test [7] relates to Aer01. It counts as cell-based, Aeromonas veronii. The source holds these as a separate data set.
Procedure: For light-sheet microscope-based imaging and determination of cellular swim speeds, overnight cultures (TSB) of strains (dTomato-tagged Aer01 and dTomato-tagged ΔspdE) were washed twice with sterile EM, as above. […] FC-EM was generated by collecting the flask EM of GF 5 or 6 dpf zebrafish larvae, filter-sterilizing and storing at 4° C. A glass cuvette was filled with culture and imaged on a custom-built light sheet fluorescence microscope, as previously described (Taormina et al., Biol. Bull. 223:7-20, 2012). The light sheet optically sections bulk samples in the center of the cuvette, so as not to constrain the motility of the imaged bacteria by surfaces. Movies in a single optical plane were captured for a duration of 20 seconds (frame rate of 30 frames/sec) with excitation light provided by a 561 nm solid state laser (Coherent Sapphire 20 mW; all strains expressed dTomato fluorescent protein). […] As above, particle tracking software, which uses a radial-symmetry-based algorithm, was used to analyze images (Parthasarathy, Nature Methods 9:724-726, 2012). The following parameters were used: bpfiltsize=7, nsize=7, gradobjsize=7, 1/nhood=true. […]
Therefore, the cells were next imaged in a cuvette on a light sheet microscope where they would be recorded within a three-dimensional space and not impeded by surfaces. […]
Test [8] in a line: Thermofluor assay with Aer01 SpdE single residue variants. It counts as binding, Aeromonas veronii. To be noted: single residue change versus wild-type Aer01 SpdE PAS/dCache. Here is the method: as §1, with “binding. […]” for “binding.”
A short description of test [9]: SpdE-NarQ chimeric sensor β-galactosidase reporter. It counts as cell-based, Escherichia coli. The conditions noted are these: expected from sensitivity of SpdE-dependent responses. The text has this:
SpdE tandem PAS/dCache is a sensitive and specific sensor of particular amino acids. This domain is utilized for the design of novel biosensors of amino acid ligands by engineering chimeric reporter proteins fusing them to the signaling domain of an Escherichia coli protein, NarQ. NarQ is a nitrate/nitrite sensor which contains a C-terminal histidine kinase signaling domain. Here, the SpdE-NarQ hybrid protein includes the tandem PAS/dCache sensing domain (proximal and distal PAS/Cache domains) and both transmembrane domains of SpdE, and the HAMP and histidine kinase signaling domain of NarQ (FIG. 21A). When activated, the NarQ signaling domain auto-phosphorylates, then transfers the phosphoryl group to NarL, a transcriptional activator that binds nitrate-responsive promotors such as narG. In this system LacZ, a β-galactosidase, is under the control of the narG promoter, therefore activation of NarL results in expression of LacZ and increased β-galactosidase activity. The β-galactosidase activity is quantified via a colorimetric assay. Based on the sensitivity of SpdE-dependent responses in the assays disclosed herein, this hybrid protein is expected to detect ligand concentrations of 10 μM or less. […] Therefore, β-galactosidase activity will decrease with increasing ligand concentrations (e.g., FIG. 21B).

In the case of `NCC(=O)O` [Glycine, glycine], the “thermal shift (ΔTm) in words” value in test [1] is “negative amino acid control”. For the same molecule, the “intracellular c-di-GMP” value in test [2] is recorded as “no change”.
As for `C[C@H](N)C(=O)O` [alanine], the “thermal shift (ΔTm) in words” value in test [1] is given as “smaller degree”.
Consider `CC[C@H](C)[C@H](N)C(=O)O` [isoleucine], for which, in test [1], the “thermal shift (ΔTm) in words” value was “largest shifts”.
With `CC(C)C[C@H](N)C(=O)O` [leucine], in [1], the “thermal shift (ΔTm) in words” value was “smaller degree”.
On the same count and under the same terms, the value for `CSCC[C@H](N)C(=O)O` [methionine] was “smaller degree”.
Regarding `O=C(O)[C@@H]1CCCN1` [proline], the “motility response in exploration assay” value in the test with Aer01 [3] (WT Aer01, 100 nM proline) was “a response was measured”. The molecule further showed an exploration response in the test with Aer01 [3] (WT Aer01, 1 mM ligand versus WT without ligand, mean) of 28.9 min. In addition, in the test on Aer01 [3] (WT Aer01, between 100 nM and 1 mM proline), the “exploration response across proline concentrations” value was “dose-dependent response trend”. For the same molecule, in [1], the “ΔTm (difference between test Tm and water control Tm)” value is reported as roughly 20 degrees; the “thermal shift (ΔTm) in words” value is on record as “largest shifts”. For the same molecule, in the test with Aer01 [4], the motility result is recorded as “little increase” and the “number of motile cells” value is given as “striking increase”. Also, the biofilm formation entry in the test with Aer01 [5] is “more robust biofilms in the absence of ligand”. Also, in test [6] (100 nM and 10 nM proline), the “CI of ΔspdE versus WT” value is given as “reduced CI but to a much lesser extent”. For the same molecule, the “median CI (competitive index) of ΔspdE versus WT” value in test [6] (ligand supplemented into inoculum and flask medium (1 mM proline)) was found to be 2. For the same molecule, the “cellular velocity (average of median values)” value in the test on Aer01 [7] (WT Aer01, 1 mM proline (12.6 μm/sec without ligand)) worked out at 24.5 μm/sec. Besides, the cellular velocity change result in the test with Aer01 [7] (ΔspdE, 1 mM proline) is listed as “did not increase”. In addition, the “intracellular c-di-GMP” value in [2] is reported as “significantly lower”.
In the case of `C[C@@H](O)[C@H](N)C(=O)O` [threonine], the “thermal shift (ΔTm) in words” value in [1] is “smaller degree”.

B1: W140/146A: Aer01 SpdE PAS/dCache variant, single residue change in the distal PAS/Cache (protein, listed as Aeromonas veronii)
chain: MSPAKPKNTWSLITRMRLGFLLLFIPVLLLGSIYYLHMERTLRHEQQQYLIARNTQYFHTLIEPYLATLKRQFTLIYQQVNYRDFSGPEIRNGERYLQQWQAYHKVMELDYVYVGTEHRKMLIHPSWQADEKFDPRTRPAYLLAASHPGQIVWTDPYYDYTLGTLTMALARVIKDPDGKRVGVLSLDTQLTPLASWLNSRHAQSHHLGNGYQLLLNHDGLVLAHPDRERVFKPLAHPDWLARMQQPQGFFLDDASGLMVSYYRIPEQRWILLSVEPTASMQQVIDSVSINVQLMIAVACFFYLLLALLWARYFRRMLGEITLLIRTSRSGGTAYHGSRMLELAKVYEEMDAASQDFAQIRQQANQDKLTGLYNRRFFDECLQKQLNSGAPFGVVMFDLDDFKRVNDTHGHQAGDVVLKRVSKLGMNLFHEWGWFCRYGGEELVLIFRYGEEQPMLPSLLEAFRLGVEQLEWREPDLTITISGGVAFSRSGLSAKELVELADKGVYQAKREGKNRICFPLRHTPHQSAEEGVPAFGETQQQTNEG
Consider B1, for which, in test [8], the “ligand binding (thermal shift)” value was “reduction in ligand binding”.

B2: Y157/163A: Aer01 SpdE PAS/dCache variant, single residue change in the distal PAS/Cache (protein, listed as Aeromonas veronii)
chain: B1 chain with A140W, Y157A
On to B2, for which, in test [8], the “ligand binding (thermal shift)” value was “reduction in ligand binding”.

B3: SpdE-NarQ hybrid protein: SpdE tandem PAS/dCache and transmembrane domains fused to HAMP and histidine kinase signaling domain of E. coli NarQ (protein)
chain: MSPAKPKNTWSLITRMRLGFLLLFIPVLLLGSIYYLHMERTLRHEQQQYLIARNTQYFHTLIEPYLATLKRQFTLIYQQVNYRDFSGPEIRNGERYLQQWQAYHKVMELDYVYVGTEHRKMLIHPSWQADEKFDPRTRPWYLLAASHPGQIVWTDPYYDYTLGTLTMALARVIKDPDGKRVGVLSLDTQLTPLASWLNSRHAQSHHLGNGYQLLLNHDGLVLAHPDRERVFKPLAHPDWLARMQQPQGFFLDDASGLMVSYYRIPEQRWILLSVEPTASMQQVIDSVSINVQLMIAVACFFYLLLALLWLNQLVTASQRIEHGQFDSPPLDTNLPNELGLLAKTFNQMSSELHKLYRSLEASVEEKTRDLHEAKRRLEVLYQCSQALNTSQIDVHCFRHILQIVRDNEAAEYLELNVGENWRISEGQPNPELPMQILPVTMQETVYGELHWQNSHVSSSEPLLNSVSSMLGRGLYFNQAQKHFQQLLLMEERATIARELHDSLAQVLSYLRIQLTLLKRSIPEDNATAQSIMADFSQALNDAYRQLRELLTTFRLTLQQADLPSALREMLDTLQNQTSAKLTLDCRLPTLALDAQMQVHLLQIIREAVLNAMKHANASEIAVSCVTAPDGNHTVYIRDNGIGIGEPKEPEGHYGLNIMRERAERLGGTLTFSQPSGGGTLVSISFRSAEGEESQLM
modifications: SpdE-NarQ fusion protein
As to B3, in [9], the detectable ligand concentration was no more than 10 µM.
